This is an account of results in US8383136B2, “Micelle encapsulation of therapeutic agents” (Wisconsin Alumni Research Foundation, priority 2009, dated 2013).

Data set [1] is described as follows: % drug loading of PEG-b-PLA micelles (wt drug(s)/wt polymer). It is filed as physicochemical. The note with it: all drugs of the SDM or MDM together, PEG-b-PLA (4.2K:1.9K) micelles. The procedure:
Drug(s) to polymer w/w percent was calculated for SDM and MDM. PEG-b-PLA micelles were freeze dried, weighed and the amount of drug(s) in the freeze dried sample was quantified by HPLC. The drug w/w percent was calculated as the mass of the drug(s) to the mass of polymer in the freeze dried sample multiplied by 100.

Data set [2] in a line: Dynamic light scattering size of SDM and MDM. Format: physicochemical. The note with it: DLS, drug-loaded SDM or MDM. The procedure: The drug-loaded micellar solutions were diluted 20 times with DD H2O and the samples was equilibrated for 2 min at 25° C. before the measurements. […] The hydrodynamic diameter of PEG-b-PLA micelles was calculated based on the Stokes-Einstein equation. Correlation function was curve fitted by cumulant method to calculate mean size and polydispersion index (PDI). All measurements were repeated three times, and volume-weighted particle sizes were presented as the average diameter with standard deviation.

A short description of data set [3]: Physical stability / drug loss from PEG-b-PLA micelles after 24 hours (turbidity, HPLC). It is filed as physicochemical. The following applies: for drug precipitated at 24 hours: SDM, HPLC data; for % w/w drug(s) left @ 24 hr / initial drug level in water / drug level @ 24 hr in water: PEG-b-PLA micelles; for time the micelles were physically stable: turbidity, ambient temperature. How it is done:
Turbidity measurements were used to evaluate the physical stability of drug-loaded PEG-b-PLA micelles. A CARY 50 BIO UV-Visible spectrophotometer equipped with dip probe was used to measure turbidity. Micellar solutions were diluted six times, for a final concentration of PEG-b-PLA of 5 mg/mL, with DD H2O and filtered through 0.45 μm filter. […] Each measurement was performed in triplicate.

Data set [4] is described as follows: In vitro drug release from PEG-b-PLA micelles (dialysis method). Format: physicochemical. The procedure:
(§1) SDMs or MDMs were prepared and characterized as described above. Post micelle preparation each sample was diluted with DD H2O, to yield about 0.10 mg/mL of each drug. A volume of 2.5 mL of the prepared sample was loaded into a 3 mL Slide-A-Lyzer® (Thermo Scientific Inc.) dialysis cassette with a MWCO of 20,000 g/mol. Four cassettes were used in each experiment. The cassettes were placed in 2.0 L of buffer which was changed every 3 hours to ensure sink conditions for drug(s) and polymer. A sample of 100 μL was drawn from each cassette at various sampling time intervals and then replaced with 100 μL of fresh buffer. […] The amount of drug(s) in each sample was quantified by HPLC as described above.
Statistical analysis was performed using one-way ANOVA at 5% significance level combined with Tukey's Multiple Comparison Test or t-test at 5% significance level. Curve-fitting analysis using one phase exponential association was used to calculate the half-life (t1/2) of drug in in vitro drug release experiments. Both analyses were performed using GraphPad Prism version 5.00 for Windows, Graph-Pad Software, San Diego Calif. USA, www.graphpad.com.
as §1, with “Post-micelle preparation,” for “Post micelle preparation”, “yield samples of” for “yield”, “reverse phase HPLC.” for “HPLC as described above.”

The conditions of data set [5]: cited from earlier work.
Data set [6] relates to pediatric acute lymphoblastic leukemia cell lines. The following applies: combination of 17-AAG and ETO, four cell lines; cited from earlier work.
Data set [7] in a line: Drug solubilization by PEG-b-PLA micelles (drug level in water, reverse phase HPLC). The following applies: SDM or MDM, PEG-b-PLA (4.2K:1.9K) micelles.
Description: The drug-polymer mixture was dissolved in 0.50 mL acetonitrile (ACN). The ACN was removed at 60° C. under reduced pressure on a rotary evaporator resulting in the formation of a homogenous film, The drug-polymer film was rehydrated with 0.50 mL of DD H2O at 60° C. with gentle agitation resulting in a clear solution of drug-loaded PEG-b-PLA micelles. The micellar solution was filtered using a 0.45 μm filter, and the micelles were characterized in terms of size and loading by Dynamic Light Scattering (DLS) and HPLC respectively.
MDMS were prepared similarly to the SDMs by mixing 2.0 mg of each drug with 15 mg of the polymer. The procedure for the preparation and characterization of these micelles was identical to the SDMs.
The content of drug loaded in PEG-b-PLA micelles was quantified by reverse phase HPLC. The HPLC system used for quantifying was a Shimadzu prominence HPLC system (Shimadzu, JP), consisting of a LC-20AT pump, SIL-20AC HT autosampler, CTO-20AC column oven and a SPD-M20A diode array detector. A sample of 10 μL was injected into a Zorbax SB-C8 Rapid Resolution cartridge (4.6×75 mm, 3.5 micron, Agilent). The column temperature was maintained at 40° C. throughout the run. Two HPLC methods were developed to quantify the amount of the drug(s) loaded in PEG-b-PLA micelles.
The mobile phase was an isocratic mixture of 45% ACN and 54% aqueous phase containing 0.1% phosphoric acid and 1% methanol in DD H2O.
The mobile phase was a gradient mixture of ACN and aqueous phase containing 0.1% phosphoric acid and 1% methanol in DD H2O. […] With both HPLC methods samples were injected twice and reproducible and rapid separation of the drugs was achieved.
Mn of PEG and PLA of PEG-b-PLA was 4,200 and 1,900 g/mol, respectively (APC Inc., UK). ACN was removed by heating at 60° C. and reduced pressure. The resultant dry polymer film containing anti-cancer agent(s) was dissolved by addition of water (0.50 mL) at 60° C. with gentle agitation.
The resultant dry PEG-b-PLA film containing drugs was dissolved by the addition of water (0.50 mL) at 60° C. with gentle agitation.
Data set [8] deals with A549 human non-small cell lung cancer cells. Put plainly: In vitro cytotoxicity, resazurin assay, and combination index. Format: cell-based. The following applies: drug(s) in SDM or MDM, 72 hours, unit inferred, PTX/17-AAG 4.7:1, RAP/17-AAG 1:1, RAP/PTX 1:1, RAP/PTX/17-AAG 1:5:1, read-out: IC50. How it is done:
(§2) MCF-7 human breast cancer cells were cultured in DMEM medium while 4T1 murine breast cancer cells, A549 human non-small cell lung cancer cells, and LS180 human colon cancer cells were cultured in RPMI1640 medium. Both media were supplemented with 10% fetal bovine serum (FBS) with antibiotics under 5% CO2 and 37° C. in an incubator. […] Free drugs were dissolved in DMSO, and drug-loaded PEG-b-PLA micelles were in deionized water. The samples were diluted with cell culture media to make 0.10, 1.0, 10, 100 and 1000 nM in 96 well plates. […] The metabolic conversion of resazurin dye by each viable cancer cell was quantified using a fluorescence cell plate reader (SpectraMax M2, Molecular Devices, USA) to estimate cell viability. […] IC50 values of free drugs and drug-loaded PEG-b-PLA micelles were calculated based on median-effect equation using Compusyn software (ver. 1.0).
(§3) CI values were obtained at IC50 values for 2- or 3-drug combinations. CI<1, C=1, and CI>1 were used as criteria to determine whether 2- or 3-drug combinations are synergistic, additive, and antagonistic, respectively (FIGS. 13-20).
Background: Resazurin is reduced to fluorescent resorufin, in cell work by metabolically active cells.

For data set [9], the system named is MCF-7 human breast cancer cells. The data set is described as above. It is filed as cell-based. The note with it: Homo sapiens, MCF7, 72 h; read-out: IC50. How it is done: as §2, §3
The test system of data set [10] is 4T1 murine breast cancer cells. The description is as above. Format: cell-based. The following applies: drug(s) in SDM or MDM, 72 hours, unit inferred, PTX/17-AAG 4.7:1, RAP/17-AAG 1:1, RAP/PTX 1:1, RAP/PTX/17-AAG 1:5:1, read-out: IC50. How it is done: as §2, with “The samples were diluted with cell culture media to make 0.10, 1.0, 10, 100 and 1000 nM in 96 well plates.” left out
as §3

Data set [11] is described as follows: Acute toxicity experiments in FVB female albino mice. The note with it: PEG-b-PLA micelles, 3 IV injections days 0, 4, 8; paclitaxel 60, 17-AAG 60, rapamycin 30 mg/kg. The procedure: Briefly, acute toxicity experiments were carried out in FVB female albino mice with 3 IV injections on days 0, 4, and 8, measuring body weights and monitoring survival over 12 days (FIG. 21).

Data set [12] relates to H-358 human non-small-cell lung cancer xenografts. The following applies: combined with 17-AAG; cited from earlier work.

Each structure is given as a SMILES string. “And” between values parts separate entries of the source, which are not always exact repeats. Identical values can stand only once. “Also recorded” adds a separate entry of the source.

As for `COc1cc([C@@H]2c3cc4c(cc3[C@@H](O[C@@H]3O[C@@H]5CO[C@@H](C)O[C@H]5[C@H](O)[C@H]3O)[C@H]3COC(=O)[C@H]23)OCO4)cc(OC)c1O` [Etoposide], in data set [1], the “% drug loading (wt. drug(s)/wt. polymer)” value worked out at 11.0 ± 0.5%. In addition, in data set [1] (listed as ETO), the “% drug loading (wt. drug(s)/wt. polymer)” value was found to be 9.6%. In addition, the PEG-b-PLA micelle diameter in data set [2] is on record as 32.6 ± 1.0 nm. Also, in [3], the “drug precipitated at 24 hours” value was approximately 68% and the “time the micelles were physically stable” value was “approximately 6 hours”. Also, in [3] (analyte etoposide), the “% w/w drug(s) left @ 24 hr” value worked out at 32.3 ± 3.4 % w/w, the “initial drug level in water” value amounted to 3.31 ± 0.15 mg/mL and the “drug level @ 24 hr in water” value worked out at 1070 ± 160 µg/mL. The first-order rate constant in data set [4] (release of etoposide, 12.5 mM PBS, pH=7.4, 37° C.) turned out to be 0.636 h⁻¹. In addition, the “intrinsic solubility in water” value in [5] (drug without micelles) is 58 µg/mL. Besides, in [6], the “decrease of the IC50 of ETO” value is recorded as 10 fold. Moreover, the “drug level in water” value in data set [7] (analyte etoposide) was found to be 3310 ± 150 µg/mL.
As usually defined, the IC50 is the point on the concentration scale where inhibition reaches its midpoint. For the compound `CC(=O)O[C@H]1C(=O)[C@@]2(C)[C@H]([C@H](OC(=O)c3ccccc3)[C@]3(O)C[C@H](OC(=O)[C@H](O)[C@@H](NC(=O)c4ccccc4)c4ccccc4)C(C)=C1C3(C)C)[C@]1(OC(C)=O)CO[C@@H]1C[C@@H]2O` [Paclitaxel], the “% drug loading (wt. drug(s)/wt. polymer)” value in [1] is 11.8 ± 1.1% and 10.3 ± 0.9%; in data set [1] (listed as PTX) it was 10.3%. The compound also registered a PEG-b-PLA micelle diameter in [2] of 38.8 ± 0.6 nm. The “drug precipitated at 24 hours” value in data set [3] was “approximately 84%”. Also, the “% w/w drug(s) left @ 24 hr” value in data set [3] (analyte paclitaxel) amounted to 16.2 ± 1.0 % w/w. The “initial drug level in water” value in data set [3] (analyte paclitaxel) came to 3.54 ± 0.32 mg/mL. Further, the “drug level @ 24 hr in water” value in [3] (analyte paclitaxel) came to 570 ± 70 µg/mL. The “time the micelles were physically stable” value in data set [3] is “approximately 6 hours”. Moreover, in data set [4] (SDM, dialysis, listed as PTX), the “behaviour of PTX during the release test” value was “Rapid precipitation; also recorded: precipitated during release”. Further, the IC50 worked out at 397 ± 59 nM in data set [8], 226 ± 32 nM in [9] and 11200 ± 4160 nM in data set [10]. Besides, the acute toxicity entry in data set [11] is listed as “low”. Also, in [5] (without micelles), the “solubility of paclitaxel in water” value is listed as “approximately 1 μg/mL”. Moreover, the “enhancement of PTX cytotoxicity” value in data set [12] is listed as 5-22 fold. Also, the “drug level in water” value turned out to be 3540 ± 320 µg/mL in data set [7] (analyte paclitaxel) and 3500 µg/mL in data set [7] (analyte paclitaxel, listed as PTX).
